Data set [1] is described as follows: Cytotoxicity (CC50) in TZM-bl cells. The data set is classed as cell-based. The settings on record: human.
For the next data set, the target named is CCR5 (Homo sapiens (Human), UniProt P51681). The data set can be described thus: Calcium flux inhibition experiment. It counts as cell-based. As to conditions: for calcium influx inhibition effect in words, versus positive control compounds: conclusion from Table 1. The source says:
Experiment apparatus: FlexStation II
Experiment materials: HEK293/CCR5-Gα16 cell line, Fluo-4calcium dye (fluorescent-4 calcium ion dye) and FlexStation instrument.
Experiment theory: Activation of the receptor can cause the activation of Gα16 protein, thereby activating phospholipase C (PLC) to generate IP3 and DAG by establishing CCR5 and Ga16 co-transfected cell line. IP3 can bind to IP3 receptors on the endoplasmic reticulum and mitochondria in a cell, which can cause the release of intracellular calcium. Thus, determination of changes in intracellular calcium can be used as a method to detect CCR5 activation state. Fluo-4/AM is a fluorescent probe indicator for calcium used to measure calcium ion. As a non-polar lipid-soluble compound, after it enters into cells, AM group is dissociated to release Fluo-4 under the effect of cell lipolysis enzyme. Fluo-4 is a polar molecule and not easy to go through the lipid bilayer membrane, therefore it can stay within the cells for a long time. Ultimately, the level of activated Ga protein can be reflected by measuring the excited fluorescence intensity. If the screened compound can activate CCR5, it can greatly increase the calcium flux reaction; on the contrary, if the screened compound can antagonize CCR5, it can greatly reduce calcium flux reaction.
1. HEK293 cells which can stably express CCR5 were inoculated in a 96-well plate and incubated overnight.
2. The medium in each well into which cells were innoculated was removed and 40 μl/well of freshly prepared dye was added. The plate was placed in a 37° C. incubator and incubated for 40 minutes at constant temperature.
3. The medicament to be determined was diluted with calcium buffer to eight concentration gradients, which is 1×10^−4 M, 1×10^−5 M, 1×10^−6 M, 1×10^−7 M, 1×10^−8 M, 1×10^−9 M, 1×10^−10 M, and 1×10^−11 M, respectively, and homogeneously mixed.
4. The dye was removed. Freshly prepared calcium buffer was used to wash for one time, 50 μl of calcium buffer was added.
5. FlexStation II was used for detection. 25 μl of calcium buffer containing the medicament to be determined was added automatically from the 15th second.

Another data set concerns HIV-1SF162 virus strain. The data set can be described thus: Inhibition activity on TZM-bl cells infected with HIV-1SF162. As to conditions: for EC50: Human immunodeficiency virus 1, TZM-bl; for therapeutic index (TI): TZM-bl cells infected with HIV-1SF162.
[2] abbreviates: HEK293/CCR5-Gα16 cell line, calcium flux, read-out: CCR5 IC50.
[3] abbreviates: TZM-bl cells (Table 3), read-out: CC50.

Values after ≈ are worked out from the molar mass of the structure shown. Where two headings read alike, the source gives them in different places.

CCR5, sequence (P51681 whole entry): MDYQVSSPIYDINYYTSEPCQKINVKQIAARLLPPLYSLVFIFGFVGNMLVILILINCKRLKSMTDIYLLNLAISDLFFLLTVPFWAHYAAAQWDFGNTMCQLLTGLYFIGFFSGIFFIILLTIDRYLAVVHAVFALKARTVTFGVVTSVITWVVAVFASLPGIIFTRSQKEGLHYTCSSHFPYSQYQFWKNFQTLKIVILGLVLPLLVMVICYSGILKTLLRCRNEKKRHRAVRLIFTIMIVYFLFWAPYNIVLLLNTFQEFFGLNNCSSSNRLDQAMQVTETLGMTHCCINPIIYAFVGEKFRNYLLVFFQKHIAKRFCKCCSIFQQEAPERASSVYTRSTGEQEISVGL

Take `CC(=O)N[C@@H](CCN1C2CCC1CC(n1c(C)nc3c1CCN(C(=O)C1CC1)C3)C2)c1ccc(Cl)s1` (stereo partly drawn) [Compound 130, N-{(1S)-3-[(3-endo)-3-(5-cyclopropionyl-2-methyl-4,5,6,7-tetrahydro-1H-imidazo[4,5-c]pyridin-1-yl)-8-azabicyclo[3.2.1]octane-8-yl]-1-(5-chlorothiophen-2-yl)-propyl}acetamide]: the CC50 in data set [1] is over 200 µg/mL. On CCR5 (setting [2]), the IC50 was found to be 0.0185 µM. In the data set with HIV-1SF162 virus strain, the midpoint of the response, the EC50, lay at 0.053 µg/mL (≈ 0.1 µM) and the “therapeutic index (TI)” value is recorded as over 2562.98.
The like results for `CC(=O)N[C@@H](CCN1C2CCC1CC(n1c(C)nc3c1CCN(C(=O)C(C)C)C3)C2)c1nccs1` (stereo partly drawn) [Compound 121, N-{(1S)-3-[(3-endo)-3-(5-isobutyryl-2-methyl-4,5,6,7-tetrahydro-1H-imidazo[4,5-c]pyridin-1-yl)-8-azabicyclo[3.2.1]octane-8-yl]-1-(thiazol-2-yl)-propyl}acetamide] were, in that order, over 200 µg/mL, 0.0323 µM, 0.328 µg/mL (≈ 0.658 µM) and over 386.37.
On the same counts, the results for `CC(=O)N[C@@H](CCN1C2CCC1CC(n1c(C)nc3c1CCN(C(C)=O)C3)C2)c1ccc(Cl)s1` (stereo partly drawn) [Compound 125, N-{(1S)-3-[(3-endo)-3-(5-acetyl-2-methyl-4,5,6,7-tetrahydro-1H-imidazo[4,5-c]pyridin-1-yl)-8-azabicyclo[3.2.1]octane-8-yl]-1-(5-chlorothiophen-2-yl)-propyl}acetamide] are over 200 µg/mL, 0.0122 µM, 0.286 µg/mL (≈ 0.567 µM) and over 699.27.
As to `CC(=O)N[C@@H](CCN1C2CCC1CC(n1c(C)nc3c1CCN(C(=O)C1CC1)C3)C2)c1ccc(F)s1` (stereo partly drawn) [Compound 132, N-{(1S)-3-[(3-endo)-3-(5-cyclopropionyl-2-methyl-4,5,6,7-tetrahydro-1H-imidazo[4,5-c]pyridin-1-yl)-8-azabicyclo[3.2.1]octane-8-yl]-1-(5-fluorothiophen-2-yl)-propyl}acetamide], the CC50 in data set [1] (setting [3]) was over 200 µg/mL. Further, the IC50 at CCR5 (setting [2]) came out at 0.0222 µM. For the same compound, in the data set on HIV-1SF162 virus strain, the EC50 came to 0.097 µg/mL (≈ 0.189 µM) and the “therapeutic index (TI)” value was over 2063.25.
On to `Cc1ccc([C@H](CCN2C3CCC2CC(n2c(C)nnc2C(C)C)C3)NC(=O)C2CCCCC2)s1` (stereo partly drawn) [Compound 30, N-[(1S)-3-[exo-3-(3-isopropyl-5-methyl-4H-1,2,4-triazol-4-yl)-8-azabicyclo[3.2.1]octane-8-yl]-1-(5-methylthiophen-2-yl)propyl]cyclohexane-1-carboxamide], for which the 50% cytotoxic concentration (CC50) in data set [1] is over 200 µg/mL. In addition, the IC50 on CCR5 (setting [2]) amounted to 0.024 µM. Further, in the data set with HIV-1SF162 virus strain, the midpoint of the response, the EC50, lay at 0.06 µg/mL (≈ 0.121 µM) and the “therapeutic index (TI)” value is over 2150.54.
In the case of `CC(=O)N[C@@H](CCN1C2CCC1CC(n1c(C)nc3c1CCN(C(C)=O)C3)C2)c1ccc(F)s1` (stereo partly drawn) [Compound 131, N-{(1S)-3-[(3-endo)-3-(5-acetyl-2-methyl-4,5,6,7-tetrahydro-1H-imidazo[4,5-c]pyridin-1-yl)-8-azabicyclo[3.2.1]octane-8-yl]-1-(5-fluorothiophen-2-yl)-propyl}acetamide], the 50% cytotoxic concentration (CC50) in data set [1] (setting [3]) is over 200 µg/mL. In addition, the IC50 at CCR5 (setting [2]) was 0.00657 µM. Also, the “calcium influx inhibition effect in words, versus positive control compounds” value on CCR5 is reported as “better than the positive control compounds”. Moreover, in the data set with HIV-1SF162 virus strain, a half-maximal response (EC50) required 0.098 µg/mL (≈ 0.201 µM) and the “therapeutic index (TI)” value is listed as over 1302.27.
Take `Cc1nnc(C(C)C)n1C1CC2CCC(C1)N2CC[C@H](NC(=O)C1CCC(F)(F)CC1)c1csc2ccccc12` (stereo partly drawn) [Compound 27, 4,4-difluoro-N-[(1S)-3-[exo-3-(3-isopropyl-5-methyl-4H-1,2,4-triazol-4-yl)-8-azabicyclo[3.2.1]octane-8-yl]-1-(benzothiophen-3-yl)propyl]cyclohexane-1-carboxamide]: the CC50 at 3 days in data set [1] amounted to 96.1 µg/mL (≈ 169 µM). Moreover, in the data set on HIV-1SF162 virus strain, a half-maximal effect (EC50) was put at 0.511 µg/mL (≈ 0.897 µM) and the “therapeutic index (TI)” value is reported as 188.14.
Regarding `Cc1nnc(C(C)C)n1C1CC2CCC(C1)N2CC[C@H](NC(=O)C1CCC(F)(F)CC1)c1ccc(F)s1` (stereo partly drawn) [Compound 37, 4,4-difluoro-N-[(1S)-3-[exo-3-(3-isopropyl-5-methyl-4H-1,2,4-triazol-4-yl)-8-azabicyclo[3.2.1]octane-8-yl]-1-(5-fluorothiophen-2-yl)propyl]cyclohexane-1-carboxamide], the CC50 at 3 days in data set [1] is over 200 µg/mL. For the same compound, in the data set on HIV-1SF162 virus strain, the EC50 was 0.647 µg/mL (≈ 1.2 µM) and the “therapeutic index (TI)” value was over 309.12.
For `Cc1ccc([C@H](CCN2C3CCC2CC(n2c(C)nnc2C(C)C)C3)NC(=O)Cn2ncnn2)s1` (stereo partly drawn) [Compound 153, N-[(1S)-3-[exo-3-(3-isopropyl-5-methyl-4H-1,2,4-triazol-4-yl)-8-azabicyclo[3.2.1]octane-8-yl]-1-(5-methylthiophen-2-yl)propyl]-2-(2H-tetrazol-2-yl)acetamide], the IC50 at CCR5 (setting [2]) was found to be 0.0135 µM.
Consider `Cc1nnc(C(C)C)n1C1CC2CCC(C1)N2CC[C@H](NC(=O)Cn1cnnn1)c1cccs1` (stereo partly drawn) [Compound 172, N-[(1S)-3-[exo-3-(3-isopropyl-5-methyl-4H-1,2,4-triazol-4-yl)-8-azabicyclo[3.2.1]octane-8-yl]-1-(thiophen-2-yl)propyl]-2-(1H-tetrazol-1-yl)acetamide], for which the IC50 on CCR5 (setting [2]) was 0.00938 µM. At CCR5, the “calcium influx inhibition effect in words, versus positive control compounds” value is “better than the positive control compounds”.
The like results for `CNC(=O)c1ccc([C@H](CCN2C3CCC2CC(n2c(C)nnc2C(C)C)C3)NC(=O)C2CCCCC2)s1` (stereo partly drawn) [Compound 141, 5-[(1S)-1-(cyclohexaneformamido)-3-[exo-3-(3-isopropyl-5-methyl-4H-1,2,4-triazol-4-yl)-8-azabicyclo[3.2.1]octane-8-yl]-propyl]-N-methylthiophene-2carboxamide] were, in that order, 0.00836 µM and “comparable to the positive control compounds”.
As for `Cc1nnc(C(C)C)n1C1CC2CCC(C1)N2CC[C@H](NC(=O)Cc1nnn[nH]1)c1ccc(C#N)s1` (stereo partly drawn) [Compound 161, N-[(1S)-3-[exo-3-(3-isopropyl-5-methyl-4H-1,2,4-triazol-4-yl)-8-azabicyclo[3.2.1]octane-8-yl]-1-(5-cyanothiophen-2-yl)propyl]-2-(1H-tetrazol-5-yl)acetamide], on CCR5, the IC50 was found to be 0.00836 µM and the “calcium influx inhibition effect in words, versus positive control compounds” value is on record as “comparable to the positive control compounds”.
For the compound `CC(=O)N[C@@H](CCN1C2CCC1CC(n1c(C)nnc1C(C)C)C2)c1csc2ccccc12` (stereo partly drawn) [Compound 28, N-[(1S)-3-[exo-3-(3-isopropyl-5-methyl-4H-1,2,4-triazol-4-yl)-8-azabicyclo[3.2.1]octane-8-yl]-1-(benzothiophen-3-yl)propyl]acetamide], the CC50 at 3 days in data set [1] (setting [3]) is over 200 µg/mL. For the same compound, the EC50 in the data set on HIV-1SF162 virus strain was over 40 µg/mL.
In the case of `Cc1nnc(C(C)C)n1C1CC2CCC(C1)N2CC[C@H](NC(=O)C1CCCCC1)c1ccc(Cl)s1` (stereo partly drawn) [Compound 113, N-[(1S)-3-[exo-3-(3-isopropyl-5-methyl-4H-1,2,4-triazol-4-yl)-8-azabicyclo[3.2.1]octane-8-yl]-1-(5-chlorothiophen-2-yl)propyl]cyclohexane-1-carboxamide], at CCR5 (setting [2]), the IC50 stood at 0.00814 µM.
For the compound `Cc1nnc(C(C)C)n1C1CC2CCC(C1)N2CC[C@H](NC(=O)Cn1ncnn1)c1cccs1` (stereo partly drawn) [Compound 152, N-[(1S)-3-[exo-3-(3-isopropyl-5-methyl-4H-1,2,4-triazol-4-yl)-8-azabicyclo[3.2.1]octane-8-yl]-1-(thiophen-2-yl)propyl]-2-(2H-tetrazol-2-yl)acetamide], the IC50 on CCR5 (setting [2]) is 0.00798 µM. The “calcium influx inhibition effect in words, versus positive control compounds” value at CCR5 was “comparable to the positive control compounds”.
With `Cc1nnc(C(C)C)n1C1CC2CCC(C1)N2CC[C@H](NC(=O)C1CCCCC1)c1nccs1` (stereo partly drawn) [Compound 116, N-[(1S)-3-[exo-3-(3-isopropyl-5-methyl-4H-1,2,4-triazol-4-yl)-8-azabicyclo[3.2.1]octane-8-yl]-1-(thiazol-2-yl)propyl]cyclohexane-1-carboxamide], the IC50 on CCR5 (setting [2]) was 0.0156 µM.
Take `Cc1nnc(C(C)C)n1C1CC2CCC(C1)N2CC[C@H](NC(=O)CC#N)c1ccc(C#N)s1` (stereo partly drawn) [Compound 167, N-[(1S)-3-[exo-3-(3-isopropyl-5-methyl-4H-1,2,4-triazol-4-yl)-8-azabicyclo[3.2.1]octane-8-yl]-1-(5-cyanothiophen-2-yl)propyl]-2-cyanoacetamide]: the IC50 on CCR5 was found to be 0.00798 µM.

Broadly, the CC50 is the concentration that lowers cell viability or growth by half. Usually IC50 stands for the concentration that inhibits the measured activity by half. A word on the EC50: it is the concentration needed to bring the measured effect to its halfway point. Lower therefore signals higher potency in that assay.

(Values after patent US10167299B2, “1-(3-aminopropyl) substituted cyclic amine compounds, preparation method therefor, and pharmaceutical compositions and uses thereof” (SHANGHAI INSTITUTE OF MATERIA MEDICA, CHINESE ACADEMY OF …, priority 2013, dated 2019).)
